Laboratory results from patent EP0551675A1, “Oral hygiene compositions containing antiplaque agents” (UNILEVER N.V., priority 1991, dated 1993).
Values after ≈ are worked out from the molar mass of the structure shown. Read-outs that look alike come from different tables or passages of the source.

How the values were obtained:
Streptococcus sanguis = assay: Antimicrobial activity determination (MIC); type: cell-based; conditions: for MIC: Streptococcus, read-out: Minimimum Inhibitory Concentrations
Protocol: (§1) The antimicrobial activity of the targeted agents was assessed by determining the minimum inhibitory concentration (MIC). Pure cultures of various strains of oral bacterial species as indicated in Table 3 were combined with serial dilutions of the targeted agents in beef heart infusion broth (BHI); starting bacterial concentrations were approximately 1.0 x 10E6 colony forming units (CFU) per ml. The mixtures were incubated aerobically at 37 degrees C and the optical density (540 nm, path length 1cm) of the cultures was measured at 0.0, 24.0 and 48.0 hr using Bausch and Lomb Spec 20 variable wavelength spectrophotometer.

Streptococcus sobrinus = assay: Antimicrobial activity determination (MIC); type: cell-based; conditions: for MIC: read-out: Minimimum Inhibitory Concentrations
Protocol: as §1

Neisseria subflava = assay: Antimicrobial activity determination (MIC); type: cell-based; conditions: for MIC: read-out: Minimimum Inhibitory Concentrations
Protocol: as §1

Actinomyces naeslundii = assay: Antimicrobial activity determination (MIC); type: cell-based; conditions: for MIC: read-out: Minimimum Inhibitory Concentrations
Protocol: as §1

Candida albicans = assay: Antimicrobial activity determination (MIC); type: cell-based; conditions: for MIC: read-out: Minimimum Inhibitory Concentrations
Protocol: as §1

[1] = Krafft point of a 1% dispersion in water; type: physicochemical; conditions: 1% dispersion of the surfactant in water
Protocol: The temperature at and above which surfactants begin to form micelles instead of precipitates is referred to as Krafft point (Tk) and at this temperature the solubility of a surfactant becomes equal to its CMC.
Krafft point was measured by preparing a 1% dispersion of the surfactant in water. If the surfactant was soluble at room temperature, the solution was cooled to 0°C. […] If it precipitated out, the solution was slowly warmed with stirring in a water bath. The temperature at which the precipitate dissolved was determined to be the Krafft point.
If the Krafft point was above room temperature, the solution was first heated rapidly to dissolve all the surfactant. It was then cooled until precipitation occurred, and was then slowly warmed to determine the Krafft point described above.

Veillonella dispar = assay: Antimicrobial activity determination (MIC); type: cell-based; conditions: read-out: Minimimum Inhibitory Concentrations
Protocol: as §1

Prevotella intermedius = assay: Antimicrobial activity determination (MIC); type: cell-based; conditions: read-out: Minimimum Inhibitory Concentrations
Protocol: as §1

[2] = test system: several species of oral bacteria; assay: MIC assays on several species of oral bacteria (stated in words); type: cell-based; conditions: result in words
Protocol: as §1

[3] = test system: Actinomyces naeslundii PK29 and Streptococcus sanguis G9B; assay: Bacterial coaggregation assay; type: cell-based; conditions: for inhibition of coaggregation between A. naeslundii and S. sanguis: result in words
Protocol: A bacterial coaggregation assay was used to determine the ability of various amino sugars to interfere with lectin-mediated binding among various bacterial species. For instance, many Actinomyces naeslundii strains coaggregate with Streptococcus sanguis as a result of binding between a lectin produced by the A. naeslundii cells and β-galactose-containing structures on the surface of the streptococci. For the present assay, A. naeslundii PK29 and S. sanguis G9B were cultured overnight in a medium containing 2.5% tryptone, 1.5% yeast extract, 0.1% magnesium sulfate, and 1.0% fructose. The cells were then washed twice in a 1.0 mM potassium phosphate buffer (pH = 6.8) containing 1.0 mM calcium chloride, 0.1 mM magnesium chloride, and 50.0 mM potassium chloride (buffered KCl), after which they were resuspended in buffered KCl at an optical density (540 nm) of 1.5. The coaggregations were performed by combining 0.5 ml of each bacterial suspension with 0.2 ml of 5.0% bovine serum albumin (BSA) and 0.8 ml of an appropriate concentration of a targeted anti-plaque agent in 3.0 ml capped polystyrene cuvettes. The cuvettes (path length 1 cm) were gently inverted at room temperature, and the optical density (540 nm) was determined as a function of time (2.0 min intervals; 20 min). The instrument employed to measure optical density was a variable wavelength spectrophotometer (Gilson Response^(R) Spectrophotometer, bought from Gilson).
The activity of a tested compound was expressed as % inhibition relative to buffer controls (i.e., % inhibition = [1 - change in optical density (inhibitor)]/ change in optical density [control]) x 100 [formula] .
The ability of various aldobionamide compounds (prepared as described in Example 1) to target to β-galactose-specific binding proteins on A. naeslundii and thus to interfere with coaggregation interactions between A. naeslundii and S. sanquis was investigated. Coaggregation of Actinomyces naeslundii PK29 and Streptococcus sanguis G9B was performed as described in the Methods section (Bacterial Coaggregation Assay) above. % Inhibition was calculated as 1.0 - the change in optical density (540 nm) in the sample containing compound tested/the change in optical density in the coaggregation buffer control. The inhibitory activity of the antiplaque agents within the scope of the invention was compared to the inhibitory activity of lactobionic acid and N-alkyl gluconamides, which are not within the scope of the invention. The gluconamides were prepared analogously to N-alkyl lactobionamides from glucono-δ-lactone (Sigma Chemicals) and the requisite aliphatic amine.

Porphyromonas gingivalis = assay: Antimicrobial activity determination (MIC); type: cell-based; conditions: read-out: Minimimum Inhibitory Concentrations
Protocol: as §1

[4] = Foam height, Ross-Miles method; type: physicochemical; conditions: 45°C, water with 120 ppm hardness
Protocol: Since most of the foaming data on surfactants is typically obtained by the Ross-Miles method (Ross, J. and Miles, G.D., am. Soc. for Testing Material Method D1173-53 Philadelphia, PA. (1953); Oil & Soap (1958) 62:1260) the foaming ability of these surfactants was also acquired using this method.
In the Ross-Miles method, 200 mL of a solution of surfactant contained in a pipette of specified dimensions with a 2.9-mm-i.d. orifice is allowed to fall 90 cm onto 50 mL of the same solution contained in a cylindrical vessel maintained at a given temperature (often 60°C) by means of a water jacket. The height of the foam produced in the cylindrical vessel is read immediately after all the solution has run out of the pipette (initial foam height) and then again after a given amount of time (generally, 5 min).
Using this method, the foam production (measured initially) and foam stability (the height after 10 minutes) are reported. […] The foam height is represented in millimeters (mm).

[5] = Streptococcus sanguis, BHI broth, aerobic, 37 degrees C
[6] = BHI broth, aerobic, 37 degrees C
[7] = Prevotella intermedius, BHI broth, aerobic, 37 degrees C

| Compound | MIC (Streptococcus sanguis; [5]) [µg/mL] | MIC (Streptococcus sobrinus; [6]) [µg/mL] | MIC (Actinomyces naeslundii; [6]) [µg/mL] | MIC (Neisseria subflava; [6]) [µg/mL] | MIC (Candida albicans; [6]) [µg/mL] | MIC (Veillonella dispar; [6]) [µg/mL] | MIC (Prevotella intermedius; [7]) [µg/mL] | further results |
| --- | --- | --- | --- | --- | --- | --- | --- | --- |
| Tetradecyl-glycyl-lactobionamide | – | – | – | – | – | – | – | Minimimum Inhibitory Concentrations (Streptococcus sanguis; [5]): 0.003 % w/v; Minimimum Inhibitory Concentrations (Streptococcus sobrinus; [6]): 0.05 % w/v; Minimimum Inhibitory Concentrations (Neisseria subflava; [6]): 0.05 % w/v; Minimimum Inhibitory Concentrations (Actinomyces naeslundii; [6]): 0.0008 % w/v; Minimimum Inhibitory Concentrations (Candida albicans; [6]): 0.05 % w/v |
| CCCCCCCCCCNC(=O)[C@H](O)[C@@H](O)[C@H](O)[C@H](O)CO [Decylgluconamide, reference compound] | > 5000 | > 5000 | > 5000 | – | – | – | – | – |
| CCCCCCCCCCCCCCNC(=O)[C@H](O)[C@@H](O)[C@H](O[C@@H]1O[C@H](CO)[C@H](O)[C@H](O)[C@H]1O)[C@H](O)CO [Tetradecyl lactobionamide, N-tetradecyl lactobionamide] | 30 (≈ 54.2 µM) | 125 (≈ 226 µM) | 15 (≈ 27.1 µM) | 60 (≈ 108 µM) | 30 (≈ 54.2 µM) | < 8 | 8 (≈ 14.4 µM) | Krafft Point [1]: 46 °C |
| O=C(O)[C@H](O)[C@@H](O)[C@H](O[C@@H]1O[C@H](CO)[C@H](O)[C@H](O)[C@H]1O)[C@H](O)CO [Tetradecyl ammonium Lactobionate, Tetradecylammonium lactobionate] | – | – | – | – | 120 | – | – | anti-microbial activity [2]: significant anti-microbial activity; inhibition at 500 µM ([3]; Actinomyces naeslundii, 0.5 mMol/L, coaggregation of A. naeslundii PK29 and S. sanguis G9B, relative to buffer control, read-out: Percent Inhibition): 0%; inhibition at 700 µM ([3]; Actinomyces naeslundii, 0.7 mMol/L, coaggregation of A. naeslundii PK29 and S. sanguis G9B, relative to buffer control, read-out: Percent Inhibition): 11%; inhibition at 900 µM ([3]; Actinomyces naeslundii, 0.9 mMol/L, coaggregation of A. naeslundii PK29 and S. sanguis G9B, relative to buffer control, read-out: Percent Inhibition): 66%; inhibition at 1400 µM ([3]; Actinomyces naeslundii, 1.4 mMol/L, coaggregation of A. naeslundii PK29 and S. sanguis G9B, relative to buffer control, read-out: Percent Inhibition): 99%; inhibition at 1800 µM ([3]; Actinomyces naeslundii, 1.8 mMol/L, coaggregation of A. naeslundii PK29 and S. sanguis G9B, relative to buffer control, read-out: Percent Inhibition): 100%; inhibition of coaggregation between A. naeslundii and S. sanguis [3]: effective inhibitor of coaggregation; Minimimum Inhibitory Concentrations (Streptococcus sanguis; [5]): 0.0016 % w/v; Minimimum Inhibitory Concentrations (Streptococcus sobrinus; [6]): 0.0125 % w/v; Minimimum Inhibitory Concentrations (Actinomyces naeslundii; [6]): 0.006 % w/v |
| CCCNC(=O)[C@H](O)[C@@H](O)[C@H](O[C@@H]1O[C@H](CO)[C@H](O)[C@H](O)[C@H]1O)[C@H](O)CO [Propyl lactobionamide, N-propyl lactobionamide] | > 1000 | > 5000 | > 5000 | > 1000 | > 1000 | > 1000 | > 1000 | MIC (Porphyromonas gingivalis; [6]): > 1000 µg/mL |
| CCCCCCCCCCNC(=O)[C@H](O)[C@@H](O)[C@H](O[C@@H]1O[C@H](CO)[C@H](O)[C@H](O)[C@H]1O)[C@H](O)CO [Decyl lactobionamide, N-decyl lactobionamide] | > 500 | > 500 | > 500 | 500 (≈ 1000 µM) | 500 (≈ 1000 µM) | 500 (≈ 1000 µM) | > 500 | Krafft Point [1]: 0 °C; Initial Height ([4]; foam production, measured initially): 150 mm; After 10 Minutes ([4]; foam stability, height after 10 minutes): 5 mm |
| CCCCCCCCCCCCOC(=O)CCNC(=O)[C@H](O)[C@@H](O)[C@H](O[C@@H]1O[C@H](CO)[C@H](O)[C@H](O)[C@H]1O)[C@H](O)CO [Dodecyl-B-alanyl-lactobionamide, N-lactobionyl dodecyl β-alanate] | 125 (≈ 209 µM) | 1000 (≈ 1670 µM) | 125 (≈ 209 µM) | 500 (≈ 837 µM) | 500 (≈ 837 µM) | – | – | – |
| CCCCCCCCCCCCCCCCNC(=O)[C@H](O)[C@@H](O)[C@H](O[C@@H]1O[C@H](CO)[C@H](O)[C@H](O)[C@H]1O)[C@H](O)CO [Hexadecyl lactobionamide, N-hexadecyl lactobionamide] | 125 (≈ 215 µM) | 1000 (≈ 1720 µM) | 60 (≈ 103 µM) | 1000 (≈ 1720 µM) | 1000 (≈ 1720 µM) | > 500 | > 500 | MIC (Porphyromonas gingivalis; [6]): > 500 µg/mL |
| CCCCCCCCCCCCCCN.Cl [tetradecyl ammonium hydrochloride, reference compound] | – | – | – | – | – | – | – | anti-microbial activity [2]: had antibacterial activity; inhibition of coaggregation between A. naeslundii and S. sanguis [3]: inhibited coaggregation |
| CCCCCNC(=O)[C@H](O)[C@@H](O)[C@H](O[C@@H]1O[C@H](CO)[C@H](O)[C@H](O)[C@H]1O)[C@H](O)CO [Pentyl lactobionmamide, N-pentyl lactobionamide] | > 1000 | > 5000 | > 5000 | > 1000 | > 1000 | > 1000 | > 1000 | MIC (Porphyromonas gingivalis; [6]): > 1000 µg/mL |
| CCCCCCCCCCCCOS(=O)(=O)[O-].[Na+] [Sodium dodecyl sulfate, reference compound] | – | – | – | – | – | – | – | MIC (Streptococcus sanguis): 15 µg/mL; MIC (Streptococcus sobrinus): 60 µg/mL; MIC (Neisseria subflava): 8 µg/mL; MIC (Actinomyces naeslundii): 8 µg/mL; MIC (Porphyromonas gingivalis): 2 µg/mL; MIC (Candida albicans): 60 µg/mL; MIC (Veillonella dispar): 60 µg/mL; MIC (Prevotella intermedius; Prevotella): 16 µg/mL |
| CCCCCCCCNC(=O)[C@H](O)[C@@H](O)[C@H](O[C@@H]1O[C@H](CO)[C@H](O)[C@H](O)[C@H]1O)[C@H](O)CO [Octyl lactobionamide, N-octyl lactobionamide] | > 1000 | > 5000 | > 5000 | > 1000 | > 1000 | > 1000 | > 1000 | MIC (Porphyromonas gingivalis; [6]): > 1000 µg/mL |
| O=C(O)[C@H](O)[C@@H](O)[C@H](O[C@@H]1O[C@H](CO)[C@H](O)[C@H](O)[C@H]1O)[C@H](O)CO [Dodecyl ammonium lactobionate, Dodecylammonium lactobionate] | – | – | – | 125 | – | 16 | 16 | anti-microbial activity [2]: significant anti-microbial activity; Minimimum Inhibitory Concentrations (Streptococcus sanguis; [5]): 0.006 % w/v; Minimimum Inhibitory Concentrations (Streptococcus sobrinus; [6]): 0.003 % w/v; Minimimum Inhibitory Concentrations (Actinomyces naeslundii; [6]): 0.003 % w/v |
| O=C(O)[C@H](O)[C@@H](O)[C@H](O[C@@H]1O[C@H](CO)[C@H](O)[C@H](O)[C@H]1O)[C@H](O)CO [Lactobionic acid, reference compound] | – | – | – | – | – | – | – | Minimimum Inhibitory Concentrations (Streptococcus sanguis; [5]): >0.5 % w/v; Minimimum Inhibitory Concentrations (Streptococcus sobrinus; [6]): >0.5 % w/v; Minimimum Inhibitory Concentrations (Actinomyces naeslundii; [6]): >0.5 % w/v |
